From ChEMBL document CHEMBL1157539, “Thousands of chemical starting points for antimalarial lead identification” (Nature, 2010)

System: Plasmodium falciparum
Assay: GSK_TCMDC: Inhibition of Plasmodium falciparum 3D7 in whole erythrocytes, using parasite LDH activity as an index of growth.
Format: functional, organism-based
Conditions: Plasmodium falciparum, 3D7

| SMILES | XC50 [nM] |
| --- | --- |
| O=C(Cn1c(CCc2cccc(F)c2F)nc(=O)c2ccccc21)N(CCN1CCCCC1)Cc1ccc(-c2ccc(C(F)(F)F)cc2)cc1 | 757 |
| COC(=O)/C=C/c1ccc(CCC(C)NCC(O)c2cccc(Cl)c2)cc1 (configuration not stated) | 935 |
| Cc1ccc(OCC2CCN(c3ncc(C(=O)NC4CC4)cc3Cl)CC2)cc1 | 1090 |
| CC1(C)[C@H]2CC[C@@H](CNc3nc(NCCc4c[nH]cn4)nc(Nc4ccc5c(c4)OCO5)n3)[C@@H]1C2 | 537 |
| CSc1ccc(NC(=O)Nc2cc(C)nc3ccccc23)cc1 | 713 |
| CCOc1c(CNCCCNc2nc3ccccc3[nH]2)cc(I)cc1OC | 663 |
| CCN1CCc2nc3ccccc3c(C(=O)Nc3ccc(C#N)cc3)c2C1 | 780 |
| O=C(Nc1ccc(Cl)c(C(F)(F)F)c1)N[C@H]1CCN(CCCCCNC(=O)C2CC2c2ccc(Cl)c(Cl)c2)C1 (some centres not stated) | 1080 |
| O=C(Nc1cccc(C(F)(F)F)c1)c1cccc(S(=O)(=O)NCC2CCN(CC3CCCCC3)CC2)c1 | 1470 |
| CN1CCc2cc(CN3CC4(C)CC3CC(C)(C)C4)c(O)cc2C(c2ccccc2)C1 (configuration not stated) | 720 |
| CC(C)CNCc1cccc(-c2ccc(CNc3ccc4ncccc4c3)cc2)c1 | 1060 |
| Cc1cccc2nc(-c3cccc(-c4ccc(NC(=O)C5CCN(C)CC5)cc4)c3)[nH]c12 | 829 |
| Cc1cc(NC(=O)Nc2cccc(Cl)c2Cl)c2ccccc2n1 | 744 |
| O=C(Cn1c(SCc2cccc(F)c2F)cc(=O)c2ccccc21)N(CCc1c[nH]cn1)Cc1ccc(-c2ccc(C(F)(F)F)cc2)cc1 | 801 |
| CN1CCCN(Cc2cccc(-c3ccc(NC(=O)c4cccc(Cl)c4)cc3)c2)CC1 | 927 |
| CCCCCN1CCC(NC(=O)c2ccc(C(=O)Nc3ccc(C(C)C)cc3)cc2)CC1 | 845 |
| Cc1c(Cc2ccc(F)cc2)c(Cl)nc2nc(N)nc(N)c12 | 861 |
| CC[C@H]1CN2CC[C@H]1C[C@H]2[C@H](O)c1cc(/C=C/c2ccccc2)nc2ccc(OC)cc12 | 42.7 |
| CCc1c[nH]c2c(N3CCCCS3(=O)=O)cc(C(=O)N[C@@H](Cc3ccccc3)[C@H](O)CNCc3cccc(OC)c3)cc12 | 909 |
| NCc1ccc(-c2ccccc2CN(C(=O)Nc2ccccc2)C2CCN(Cc3ccccc3)CC2)cc1 | 880 |
| COC(=O)[C@@H](NC(=O)[C@@H](Nc1ccc(C#N)c2ccccc12)C(C)(C)C)c1ccc(O)cc1 | 777 |
| Cc1ccc(NC(=O)Nc2ccccc2F)cc1-c1ccc(C(=O)Nc2ccncc2)cc1 | 563 |
| Cc1ccc(C)c(NC(=O)NC2CCN(c3ccnc(Nc4ccc(F)cc4)n3)C2)c1 (configuration not stated) | 675 |
| S=C(NN=Cc1ccccn1)NC1CC2C=CC1C2 (configuration not stated) | 721 |
| CN(C)c1ccc(CN2CCC(NC(=O)c3ccc(-c4ccccc4Cl)s3)CC2)cc1 | 899 |

| SMILES | XC50 [nM] |
| --- | --- |
| CC(Cc1ccc(OCc2ccc(CCN(C)C)cc2)cc1)NCCc1cccc(Cl)c1 (configuration not stated) | 769 |
| CN1CCC(C(=O)N(Cc2ccc(-c3ccc(CNCCc4ccccc4)cn3)cc2)C2CCN(Cc3ccccc3)CC2)CC1 | 787 |
| Nc1c2c(nc3cc(NC(=O)c4ccc([N+](=O)[O-])cc4)ccc13)CCCC2 | 475 |
| CCc1cc(NC2CCN(C)CC2)nc(Nc2ccc(C)cc2)n1 | 694 |
| CCCCCCCCc1c(C)nc(C)c(C#N)c1O | 402 |
| Cc1cc(N2CCN(C3CCCCC3)CC2)nc2cccc(O)c12 | 701 |
| Cc1cccc2nc(-c3ccc(-c4cccc(NC(=O)NCc5ccccc5)c4)cc3)[nH]c12 | 777 |
| CCc1ccc(CN(CCCOc2cccc(CC(=O)NCc3c[nH]cn3)c2)Cc2ccc(-n3ccnc3)cc2)cc1 | 979 |
| CC(C)Oc1cc2c(cc1NS(=O)(=O)c1ccc(-c3ccc(Cl)cc3)cc1F)CCN(C)CC2 | 919 |
| CN1CCCN(Cc2ccc(-c3ccc(NC(=O)c4ccc(C#N)cc4)cc3)cc2)CC1 | 1020 |
| COC(=O)CCCOc1cc(Cc2cnc(N)nc2N)cc(OC)c1OC | 767 |
| Cc1cc(NCCc2ccccc2)nc(NC(=N)Nc2ccc(Cl)cc2)n1 | 232 |
| O=C(c1cc(C(=O)Nc2ccc(F)cc2)c(=O)n(-c2ccc(F)cc2)c1)c1cc(Cl)ccc1O | 219 |
| O=C(Nc1ccc(OC2CCN(Cc3ccc(F)cc3)CC2)c(Cl)c1)c1cccs1 | 318 |
| COc1ccc(-c2ccc(NC(=O)c3ccc(Cl)cc3)cc2)cc1CN1CCCN(C)CC1 | 648 |
| CN(C)CCCn1cncc1-c1ccc2ncnc(Nc3ccc(OCc4ccccc4)cc3)c2c1 | 524 |
| CC(C)(C)c1nn(-c2ccccc2)c2[nH]c(=O)c(CNC3CCCCC3)cc12 | 1250 |
| Nc1c2c(nc3ccc(NC(=O)CCCCCc4ccccc4)cc13)CCCC2 | 438 |
| N=C(N)NN=CC(=O)Nc1ccc(Br)cc1 | 884 |
| O=C(c1cc(-c2ccccc2O)on1)N1CCN(C(c2ccccc2)c2ccccc2)CC1 | 335 |
| Cc1ccc(Nc2nc3cc(N(C)c4ccnc(Nc5cccc(CS(C)(=O)=O)c5)n4)ccc3o2)cc1 | 973 |
| COc1ccc(C(=O)N2CCC(C(=O)NC(C)c3ccc(-n4ccnc4)cc3)CC2)c2ccccc12 (configuration not stated) | 1130 |
| Cc1ccoc1C(=O)Nc1ccc(-c2cccc(-c3nc4cccc(C)c4[nH]3)c2)cc1 | 726 |
| CCN(Cc1ccccc1)CC(O)c1ccc(Cl)c(Cl)c1 (configuration not stated) | 182 |
| Oc1ccc2ncnc(Nc3ccc(OCc4cccc(F)c4)c(Cl)c3)c2c1 | 993 |

| SMILES | XC50 [nM] |
| --- | --- |
| Cc1cc(N[C@@H](Cc2ccccc2)C(=O)Nc2ccccc2)nc(NCCc2ccccc2)n1 | 871 |
| CN(C)CCCOc1ccc(CN2CC[C@H](NC(=O)c3ccc(Cl)c(Cl)c3)C2)c2ccccc12 | 879 |
| COc1c(C2CCN(CCCCNC(=O)c3ccc(-c4ccc(Cl)cc4)c(O)c3)CC2)ccc2c1CCCC2 | 226 |
| c1cc(CNCCc2ccncc2)cc(-c2cccc(-c3nc4ccccc4[nH]3)c2)c1 | 146 |
| O=[N+]([O-])c1cc(/C=N/Nc2nc3ccccc3[nH]2)ccc1O | 954 |
| CCCCCCCCCc1c(C)[nH]c2ccccc2c1=O | 163 |
| Cc1cc(N2CCCC2)nc(Nc2ccc(NC(=O)c3ccccc3F)cc2)n1 | 922 |
| N=C(N)c1ccc(NC(=O)c2cc(Sc3ccc(O)c(C(=O)Nc4ccc(C(=N)N)cc4)c3)ccc2O)cc1 | 122 |
| COc1ccccc1C1CCN(C2CCC(NC(=O)c3cc(-c4ccc(Cl)cc4)cs3)CC2)CC1 (configuration not stated) | 383 |
| COc1ccc(NC(=O)/C=C/c2ccccc2Cl)cc1OCCN1CCC(NC2CC2)CC1 | 842 |
| COc1ccc2nccc([C@@H](O)CN3CCC(NCc4cc5c(cc4F)SCC(=O)N5)CC3)c2n1 | 1000 |
| O=C(N[C@@H](Cc1ccccc1)[C@H](O)CNC1CCOCC1)c1cc(C2CCCC2)cc(N2CCCCS2(=O)=O)c1 | 202 |
| O=S(=O)(NCCN1CCCC1)c1ccc(-c2ccc(CNCc3ccsc3)cc2)s1 | 832 |
| COc1ccccc1CN1CCC(NC(=O)c2ccc(-c3ccc(N(C)C)cc3)s2)CC1 | 958 |
| O=C(/C=C/c1ccc(Cl)c(Cl)c1)NCCCCCN1CCC(NC(=O)Nc2ccc(Cl)cc2Cl)CC1 | 640 |
| COc1ccc2c(NN=Cc3cccc(Cl)c3)ccnc2c1 | 716 |
| Cc1sc(N2CCN(C)CC2)nc1C(=O)Nc1ccc(F)cc1C(F)(F)F | 1070 |
| CCCCCCN1CCC(NCc2ccc(CN(C)C)cc2)CC1 | 1270 |
| Cc1cc(Nc2cccc(C(F)(F)F)c2)nc(NCc2ccccc2)n1 | 148 |
| Nc1nc2c(ncn2COC2COP(=O)(O)OC2)c(=O)[nH]1 (configuration not stated) | 454 |
| CCc1ccc(C2CCN(CCCCNC(=O)c3ccc(NC(=O)c4ccc(Cl)cc4)cc3)CC2)c(OCCO)c1 | 1390 |
| CC1(C)C2C=C(CN3CCC(NC(=O)Nc4ccc(Cl)c(Cl)c4)CC3)C1CC2 (configuration not stated) | 761 |
| CCNc1cc(C)nc(Nc2ccc(C)cc2)n1 | 730 |
| O=C(c1cc(C(F)(F)F)cc(C(F)(F)F)c1)N1CCC(CCN2CCC3(CC2)C(=O)NCN3c2ccccc2)CC1Cc1ccc(Cl)c(Cl)c1 (configuration not stated) | 656 |
| CN(CCc1ccccn1)c1cccc2c1nc(-c1cccnc1)n2CCNCc1ccccc1 | 1060 |

| SMILES | XC50 [nM] |
| --- | --- |
| COCCOc1ccc(Nc2nccc(-c3c(-c4cccc(NC(=O)c5c(F)cccc5F)c4)nn4ccccc34)n2)cc1Cl | 356 |
| O=C(/C=C/c1ccc(Cl)c(Cl)c1)NC1CCN(CCCNC(=O)c2cccc(Cl)c2)CC1 | 659 |
| CC(=O)C1(c2ccccc2)CCN(CCC(NC(=O)c2cc(C(F)(F)F)cc(C(F)(F)F)c2)c2ccc(Cl)c(Cl)c2)CC1 (configuration not stated) | 1190 |
| O=c1cc(NCCCNCc2cccc(C(F)(F)F)c2Cl)[nH]c2ccccc12 | 804 |
| CN1CCCc2ccc(NC(=O)Nc3ccc(-c4ccccc4)cc3)cc2C1 | 380 |
| CC(C)(C)c1ccc(S(=O)(=O)Nc2cc(Cl)ccc2Cn2ccc(N3CCNCC3)nc2=O)cc1 | 827 |
| Cc1nc2nc(N)nc(N)c2c(C)c1Cc1cccc(F)c1 | 341 |
| FC(F)(F)COc1c(CCNCCCCNCCc2ccc3ccccc3c2OCC(F)(F)F)ccc2ccccc12 | 348 |
| CNC(=O)c1ccccc1Nc1nc(Nc2ccc(C(=O)O)cc2)ncc1Cl | 950 |
| N#Cc1cccc(NC(=O)Nc2cccc(-c3ccc(-c4nc5cc(C(F)(F)F)ccc5[nH]4)cc3)c2)c1 | 247 |
| CN1CCN(CC2(Nc3nccc(NCCc4cn(C)c5ccccc45)n3)CCCCC2)CC1 | 1810 |
| Nc1ncc(-c2ccc(Cl)c(Cl)c2)c(N)n1 | 727 |
| c1ccc2c(c1)CN(CC1CCOCC1)CC1(CCN(Cc3c[nH]c4cnccc34)CC1)O2 | 1550 |
| COc1ccc(-c2cc(C(=O)N[C@@H](Cc3ccccc3)C(=O)NCCN3CCCCC3)ccc2O)cc1 | 792 |
| O=S(=O)(c1cccc(C(F)(F)F)c1)N1CCC(CO)(Cc2cccc(C(F)(F)F)c2)CC1 | 964 |
| O=C(Nc1ccc(OC2CCN(Cc3ccccc3)C2)c(Cl)c1)c1ccc(F)cc1 (configuration not stated) | 791 |
| Cc1cc(C(=O)NC2CCN(CC3(c4ccc(Cl)cc4)CCC3)CC2)on1 | 92 |
| Cc1ccc2c(c1)c(C1CCN(C(=O)c3ccc([N+](=O)[O-])o3)CC1)cn2C | 746 |
| CCn1ccc2c(N3CCCS3(=O)=O)cc(C(=O)N[C@@H](Cc3ccccc3)[C@H](O)CNC3CCCCC3)cc21 | 137 |
| O=C(O[C@H]1CN[C@H](C#Cc2cc3c(Nc4ccc(OCc5cccc(F)c5)c(Cl)c4)ncnc3s2)C1)N1CCCC1 | 707 |
| COc1cccc(CNC(=O)[C@@H]2CN(C(=O)c3ccccc3)CCN2)c1 | 1160 |
| Cc1nc(N/C=C/c2ccc(O)cc2)cc(N2CCCC2)n1 | 1070 |
